Source: patent US20230321140A1, “MULTIPLE MEDIATORS TARGETED MULTIFUNCTIONAL NANOPARTICLES AND USES THEREOF” (The Trustees of Columbia University in the City of New York, priority 2022, published 2023)

Legend:
[1] = tested on: E. coli; assay: Antibacterial effect (OD 600 nm); format: cell-based, Escherichia coli; details: 6 h and 12 h
Procedure: E. coli was used to investigate the anti-bacterial effect of NPs. E. coli diluted in Luria-Bertani liquid medium were seeded in a 96-well plate at a density of 10^6/mL and were treated with NPs at different concentrations. After 6 h and 12 h of incubation with NPs at 37° C., the proliferation of bacteria was determined with a multiwell plate reader by measuring the OD at 600 nm.

[2] = tested on: calf thymus DNA; assay: PicoGreen DNA binding affinity assay; details: TE buffer without FBS; calf thymus DNA 0.5 μg/mL
Procedure: FIGS. 2A-B show DNA binding affinity of NPs at different NP:DNA mass ratios (see legend) in TE buffer without Fetal Bovine Serum (FBS) (A) and with 10% FBS (B). [Calf thymus DNA]=0.5 μg/mL. (C) Cytotoxicity of NPs to RAW 264.7 cells. (D) Colocalization of FITC-labeled TA-Zn-Gen NPs and Cy5-labeled CpG in lysosomes (CLSM images). Scale bar, 10 μm. Quant-iT PicoGreen (12.5 μL) and calf thymus DNA ([…], 25 μL) were mixed with 1×TE buffer (10 mL) in the dark. NPs at different concentrations in 100 μL together with 100 μL of the above solution were added to a 96-well black plate and incubated at 37° C. for 30 min. The fluorescence intensity of the Picogreen-DNA complex at 520 nm was measured with a multiwell plate reader via excitation at 490 nm.

Compound	antibacterial activity, NPs versus free components [1]	DNA binding affinity [2]
gentamicin	potent concentration-dependent antibacterial effect	
O=C(OC[C@H]1O[C@@H](OC(=O)c2cc(O)c(O)c(OC(=O)c3cc(O)c(O)c(O)c3)c2)[C@H](OC(=O)c2cc(O)c(O)c(OC(=O)c3cc(O)c(O)c(O)c3)c2)[C@@H](OC(=O)c2cc(O)c(O)c(OC(=O)c3cc(O)c(O)c(O)c3)c2)[C@@H]1OC(=O)c1cc(O)c(O)c(OC(=O)c2cc(O)c(O)c(O)c2)c1)c1cc(O)c(O)c(OC(=O)c2cc(O)c(O)c(O)c2)c1 [tannic acid]	slight antibacterial activity at a high concentration	also exhibited DNA binding
